Assay results published in patent US20250082643A1, “COMBINATION THERAPY FOR PIK3CA-ASSOCIATED DISEASES OR DISORDERS” (Faeth Therapeutics, Inc., priority 2021, published 2025).

Legend:
[1] = system: solid tumors with PIK3CA mutations with or without PTEN loss; details: human, in vivo
Excerpt: The primary objective of the study is to evaluate the safety, feasibility, and pharmacokinetic impact of intrasubject modulated dosing for serabelisib when co-administered with a study ISD in a pilot cohort of subjects with solid tumors with PIK3CA mutations with or without PTEN loss. […] For the expansion cohort, nab-paclitaxel will also be administered with serabelisib when co-administered with a study ISD. […] FIG. 4 depicts a representation of the study cohorts of the clinical trial using serabelisib in combination with an insulin suppressing diet and nab-paclitaxel in subjects with cancer.
Cohort 1a (Dose Modification): The primary objective of the study is to evaluate the safety, compliance, and pharmacokinetic (PK) impact of intrasubject modulated dosing for serabelisib in combination with a Study ISD in a pilot cohort. […] Endpoints include: ORR, defined as the proportion of subjects who have best overall response of either CR or PR, as determined by each site; Progression free survival (PFS), defined as the time from date of first dose of Study Drug (Visit 1) to the date of first evidence of disease progression or death from any cause (whichever occurs first); Overall survival (OS) and landmark survival; Duration of response (DoR); and Disease control rate (DCR; CR+PR+stable disease [SD]). […]

[2] = system: other class I PI3K isoforms; details: relative to PI3Kα
[3] = target: mammalian target of rapamycin (mTOR) (Homo sapiens, UniProt P42345); details: relative to PI3Kα
[4] = target: PI3Kα (Homo sapiens, UniProt P42336); details: biochemical assays; read-out: half maximal inhibitory concentration (IC50); cited from earlier work
[5] = system: downstream signaling of PI3K; details: cell lines with hyperactivation of the pathway; cited from earlier work
[6] = system: a range of cell lines; details: cited from earlier work
[7] = system: human breast cancer cells harboring mutations in the PIK3CA gene; details: mouse xenograft, PIK3CA-mutated human breast cancer cells; cited from earlier work
[8] = system: renal cell carcinoma xenograft with mutations in the PTEN gene; details: cited from earlier work
[9] = cited from earlier work
[10] = in vitro metabolism, across test species; cited from earlier work
[11] = target: CYP3A4 (Homo sapiens, UniProt P08684); details: normalized for liver content; cited from earlier work
[12] = system: CYP3A4/5; details: cited from earlier work
[13] = target: CYP2D6 (Homo sapiens, UniProt P10635); details: cited from earlier work
[14] = target: CYP2C19 (Homo sapiens, UniProt P33261); details: cited from earlier work
[15] = target: CYP2C9 (Homo sapiens, UniProt P11712); details: cited from earlier work
[16] = target: CYP2C8 (Homo sapiens, UniProt P10632); details: cited from earlier work
[17] = target: CYP2B6 (Homo sapiens, UniProt P20813); details: cited from earlier work
[18] = target: CYP1A2 (Homo sapiens, UniProt P05177); details: cited from earlier work
[19] = system: CYP1A2; details: cited from earlier work
[20] = system: CYP2B6; details: cited from earlier work
[21] = system: CYP3A4/5; details: cited from earlier work; remark: listed apart in the source
[22] = target: organic cation transporter (OCT) 1 (Homo sapiens, UniProt O15245); details: cited from earlier work
[23] = target: OCT2 (Homo sapiens, UniProt O15244); details: cited from earlier work
[24] = target: breast cancer resistance protein (BCRP) (Homo sapiens, UniProt Q9UNQ0); details: cited from earlier work
[25] = system: solid tumors; details: cited from earlier work
[26] = oral administration, various animal species

PI3Kα, sequence (P42336 whole entry): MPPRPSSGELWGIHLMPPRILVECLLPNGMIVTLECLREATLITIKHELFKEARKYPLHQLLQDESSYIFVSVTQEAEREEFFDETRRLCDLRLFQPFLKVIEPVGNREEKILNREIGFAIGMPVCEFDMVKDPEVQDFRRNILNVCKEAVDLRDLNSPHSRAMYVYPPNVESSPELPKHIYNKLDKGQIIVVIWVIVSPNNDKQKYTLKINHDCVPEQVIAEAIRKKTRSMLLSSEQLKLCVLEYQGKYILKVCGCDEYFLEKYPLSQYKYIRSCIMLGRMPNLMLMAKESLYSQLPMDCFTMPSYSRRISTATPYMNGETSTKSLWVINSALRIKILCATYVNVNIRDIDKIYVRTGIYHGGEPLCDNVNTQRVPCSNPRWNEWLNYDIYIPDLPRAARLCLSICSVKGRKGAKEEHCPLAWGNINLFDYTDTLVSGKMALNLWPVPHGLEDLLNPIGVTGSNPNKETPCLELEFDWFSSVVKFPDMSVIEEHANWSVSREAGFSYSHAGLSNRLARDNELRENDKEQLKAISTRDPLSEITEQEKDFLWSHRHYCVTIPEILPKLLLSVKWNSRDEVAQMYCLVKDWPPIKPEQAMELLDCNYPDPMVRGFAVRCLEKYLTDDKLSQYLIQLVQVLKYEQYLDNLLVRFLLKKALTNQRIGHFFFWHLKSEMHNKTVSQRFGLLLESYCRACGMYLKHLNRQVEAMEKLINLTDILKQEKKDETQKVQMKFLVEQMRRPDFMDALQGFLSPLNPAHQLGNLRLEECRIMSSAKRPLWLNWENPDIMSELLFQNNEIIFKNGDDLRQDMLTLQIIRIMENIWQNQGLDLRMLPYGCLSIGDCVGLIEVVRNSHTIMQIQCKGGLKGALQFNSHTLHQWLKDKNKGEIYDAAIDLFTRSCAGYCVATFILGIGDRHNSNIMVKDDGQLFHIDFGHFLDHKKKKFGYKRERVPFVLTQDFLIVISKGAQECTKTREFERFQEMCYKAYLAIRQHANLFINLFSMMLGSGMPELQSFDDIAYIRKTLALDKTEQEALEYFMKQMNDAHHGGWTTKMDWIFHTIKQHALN
PI3Kα, sequence (P27986 whole entry partner): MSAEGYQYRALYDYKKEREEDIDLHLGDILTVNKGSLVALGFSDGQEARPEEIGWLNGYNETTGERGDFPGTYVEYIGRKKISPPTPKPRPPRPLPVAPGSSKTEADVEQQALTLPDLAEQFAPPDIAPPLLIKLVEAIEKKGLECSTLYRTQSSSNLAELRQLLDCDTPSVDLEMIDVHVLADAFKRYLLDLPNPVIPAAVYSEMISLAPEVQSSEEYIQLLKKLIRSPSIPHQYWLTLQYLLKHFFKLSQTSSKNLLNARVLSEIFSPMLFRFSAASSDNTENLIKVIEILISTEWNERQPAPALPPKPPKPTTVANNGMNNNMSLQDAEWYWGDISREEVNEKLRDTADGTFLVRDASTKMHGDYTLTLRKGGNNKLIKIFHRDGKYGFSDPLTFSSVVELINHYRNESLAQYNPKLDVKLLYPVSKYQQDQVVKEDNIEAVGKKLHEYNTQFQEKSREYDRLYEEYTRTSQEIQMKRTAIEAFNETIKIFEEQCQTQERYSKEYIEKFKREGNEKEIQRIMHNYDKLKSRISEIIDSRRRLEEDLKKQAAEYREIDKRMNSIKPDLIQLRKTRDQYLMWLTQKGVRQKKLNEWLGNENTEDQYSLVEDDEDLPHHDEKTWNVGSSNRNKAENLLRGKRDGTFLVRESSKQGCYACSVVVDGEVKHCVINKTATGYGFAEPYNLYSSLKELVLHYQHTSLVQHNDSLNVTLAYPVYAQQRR
CYP1A2 (Homo sapiens, UniProt P05177), sequence (P05177 whole entry): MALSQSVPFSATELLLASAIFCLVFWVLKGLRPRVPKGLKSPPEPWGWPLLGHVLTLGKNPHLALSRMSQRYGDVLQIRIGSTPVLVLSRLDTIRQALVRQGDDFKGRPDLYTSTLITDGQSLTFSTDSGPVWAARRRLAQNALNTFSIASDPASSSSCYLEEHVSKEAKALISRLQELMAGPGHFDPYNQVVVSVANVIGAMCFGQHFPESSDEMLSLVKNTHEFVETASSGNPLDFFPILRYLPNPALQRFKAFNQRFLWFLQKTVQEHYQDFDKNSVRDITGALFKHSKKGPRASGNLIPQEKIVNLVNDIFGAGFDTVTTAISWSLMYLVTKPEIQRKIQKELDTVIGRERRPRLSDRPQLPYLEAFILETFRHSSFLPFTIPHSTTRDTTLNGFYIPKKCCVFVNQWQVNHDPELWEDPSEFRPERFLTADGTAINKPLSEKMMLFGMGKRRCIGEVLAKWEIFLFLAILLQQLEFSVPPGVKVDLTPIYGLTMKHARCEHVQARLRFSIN
CYP2C9, sequence (P11712 whole entry): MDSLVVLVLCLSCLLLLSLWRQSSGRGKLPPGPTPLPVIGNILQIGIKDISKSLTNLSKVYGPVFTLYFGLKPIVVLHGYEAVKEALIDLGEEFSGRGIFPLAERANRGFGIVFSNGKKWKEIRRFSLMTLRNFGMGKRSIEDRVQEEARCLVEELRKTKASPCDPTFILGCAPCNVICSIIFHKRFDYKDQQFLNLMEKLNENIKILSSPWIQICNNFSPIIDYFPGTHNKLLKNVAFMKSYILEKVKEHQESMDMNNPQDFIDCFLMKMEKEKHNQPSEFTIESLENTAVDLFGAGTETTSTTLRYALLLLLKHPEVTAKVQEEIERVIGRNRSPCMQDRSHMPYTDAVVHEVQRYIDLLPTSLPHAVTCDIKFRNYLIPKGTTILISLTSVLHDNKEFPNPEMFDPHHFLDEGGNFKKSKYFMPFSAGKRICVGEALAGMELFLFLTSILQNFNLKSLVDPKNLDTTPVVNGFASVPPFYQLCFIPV
CYP2B6 (Homo sapiens, UniProt P20813), sequence (P20813 whole entry): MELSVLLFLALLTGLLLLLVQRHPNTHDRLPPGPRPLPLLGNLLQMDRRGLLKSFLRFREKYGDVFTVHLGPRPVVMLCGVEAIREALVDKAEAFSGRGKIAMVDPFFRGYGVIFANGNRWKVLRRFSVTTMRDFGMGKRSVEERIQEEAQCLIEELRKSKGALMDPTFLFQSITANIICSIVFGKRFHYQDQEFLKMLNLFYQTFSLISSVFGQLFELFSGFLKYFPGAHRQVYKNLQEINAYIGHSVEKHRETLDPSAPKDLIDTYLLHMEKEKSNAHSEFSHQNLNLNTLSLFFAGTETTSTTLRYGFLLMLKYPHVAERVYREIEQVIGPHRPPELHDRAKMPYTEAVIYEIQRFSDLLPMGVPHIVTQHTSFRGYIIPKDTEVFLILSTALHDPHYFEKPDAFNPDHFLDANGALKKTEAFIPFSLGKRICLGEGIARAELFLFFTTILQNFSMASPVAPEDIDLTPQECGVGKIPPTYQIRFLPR
CYP3A4, sequence (P08684 whole entry): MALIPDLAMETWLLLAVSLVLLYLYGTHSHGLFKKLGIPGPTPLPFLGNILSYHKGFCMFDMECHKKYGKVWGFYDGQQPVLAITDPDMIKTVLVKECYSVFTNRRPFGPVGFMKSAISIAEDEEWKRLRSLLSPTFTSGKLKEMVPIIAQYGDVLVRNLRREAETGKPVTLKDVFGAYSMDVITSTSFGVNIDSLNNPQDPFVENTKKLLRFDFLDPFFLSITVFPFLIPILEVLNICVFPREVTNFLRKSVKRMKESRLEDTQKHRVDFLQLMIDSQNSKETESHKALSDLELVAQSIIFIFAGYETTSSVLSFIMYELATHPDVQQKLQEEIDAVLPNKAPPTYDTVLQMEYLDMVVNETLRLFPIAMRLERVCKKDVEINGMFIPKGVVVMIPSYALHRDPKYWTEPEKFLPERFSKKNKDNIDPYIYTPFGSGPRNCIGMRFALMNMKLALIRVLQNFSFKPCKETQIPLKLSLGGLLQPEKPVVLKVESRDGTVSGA
CYP2C8, sequence (P10632 whole entry): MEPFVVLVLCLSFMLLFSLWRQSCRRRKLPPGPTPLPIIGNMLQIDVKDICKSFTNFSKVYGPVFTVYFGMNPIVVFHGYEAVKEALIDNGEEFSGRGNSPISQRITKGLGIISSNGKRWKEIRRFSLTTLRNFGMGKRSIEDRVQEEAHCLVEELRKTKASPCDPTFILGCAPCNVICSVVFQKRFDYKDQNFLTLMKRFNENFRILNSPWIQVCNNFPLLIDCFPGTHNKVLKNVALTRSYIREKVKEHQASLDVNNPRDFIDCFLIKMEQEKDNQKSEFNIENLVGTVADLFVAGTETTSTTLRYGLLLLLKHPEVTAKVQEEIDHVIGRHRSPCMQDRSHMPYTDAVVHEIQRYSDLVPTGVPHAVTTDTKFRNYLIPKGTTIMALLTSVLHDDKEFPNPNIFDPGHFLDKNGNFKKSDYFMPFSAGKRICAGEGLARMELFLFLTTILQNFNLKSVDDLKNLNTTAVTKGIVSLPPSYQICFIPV
OCT2, sequence (O15244 whole entry): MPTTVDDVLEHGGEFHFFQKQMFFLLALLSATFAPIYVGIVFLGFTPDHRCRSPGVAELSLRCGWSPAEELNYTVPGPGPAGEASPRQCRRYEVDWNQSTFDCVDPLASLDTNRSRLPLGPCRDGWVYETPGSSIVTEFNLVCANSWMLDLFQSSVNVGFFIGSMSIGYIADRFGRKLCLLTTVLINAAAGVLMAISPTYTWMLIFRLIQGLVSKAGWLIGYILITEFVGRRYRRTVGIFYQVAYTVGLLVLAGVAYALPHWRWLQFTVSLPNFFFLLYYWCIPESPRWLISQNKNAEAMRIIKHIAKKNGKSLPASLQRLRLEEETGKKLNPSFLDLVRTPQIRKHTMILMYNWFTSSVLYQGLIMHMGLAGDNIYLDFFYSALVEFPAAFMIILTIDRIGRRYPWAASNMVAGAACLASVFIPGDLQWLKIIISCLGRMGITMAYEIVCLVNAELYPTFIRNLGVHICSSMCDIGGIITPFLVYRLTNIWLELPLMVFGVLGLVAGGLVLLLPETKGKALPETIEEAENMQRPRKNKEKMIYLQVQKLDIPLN

Compound: Nc1nc2cc(-c3ccc4ncc(C(=O)N5CCOCC5)n4c3)ccc2o1 [serabelisib, 6-(2-Aminobenzo[d]oxazol-5-yl) imidazo[1,2-a]pyridine-3-yl morpholino methanone]
- drug accumulation between dosing cycles [1]: No meaningful drug accumulation
- selectivity over other class I PI3K isoforms [2]: > 50 fold
- selectivity over mTOR [3]: > 50 fold
- IC50 [4]: 20 nM
- downstream signaling of PI3K [5]: blocks downstream signaling of PI3K
- antiproliferative activity [6]: demonstrates antiproliferative activity
- tumor growth inhibition [7]: strong tumor growth inhibition
- efficacy on xenograft [8]: no efficacy
- tissue distribution of radiolabeled drug ([9]; following oral dosing): well distributed to all tissues
- absorption [9, 26]: rapid absorption
- bioavailability [9, 26]: high bioavailable
- excretion ([9]; urine and feces): majority of the drug is excreted in urine and feces as the parent compound
- unique human metabolite [10]: no unique human metabolite was identified
- share of metabolism by CYP3A4 [11]: 72%
- inhibition of CYP3A4/5 [12]: low potential for inhibition
- inhibition of CYP2D6 [13]: low potential for inhibition
- inhibition of CYP2C19 [14]: low potential for inhibition
- inhibition of CYP2C9 [15]: low potential for inhibition
- inhibition of CYP2C8 [16]: low potential for inhibition
- inhibition of CYP2B6 [17]: low potential for inhibition
- inhibition of CYP1A2 [18]: low potential for inhibition
- induction of CYP1A2 activity [19]: does not induce
- induction of CYP2B6 activity [20]: does not induce
- induction of CYP3A4/5 activity [21]: does not induce
- inhibition of OCT1 [22]: inhibitor
- inhibition of OCT2 [23]: inhibitor
- inhibition of BCRP [24]: inhibitor
- subjects with related serious adverse events (SAEs) ([25]; 3CDW cohorts): 7%
- MTD ([25]; Phase 1 study, intermittent 3CDW schedule): 900 mg
- related adverse event: decreased appetite ([25]; across all doses and regimens): 23%
- related adverse event: diarrhea ([25]; across all doses and regimens): 31%
- related adverse event: hyperglycemia ([25]; across all doses and regimens): 37%
- related adverse event: increased aspartate aminotransferase (AST) ([25]; across all doses and regimens): 20%
- related adverse event: nausea ([25]; across all doses and regimens): 50%
- related adverse event: vomiting ([25]; across all doses and regimens): 38%
- subjects with gastrointestinal dose-limiting toxicity (DLT) ([25]; dose escalated from 900 mg to 1200 mg, 3CDW regimen): 2 of 3
- PK profile ([25]; human, in vivo): linear PK profile
- cases of drug-induced liver injury (DILI) ([25]; prior serabelisib clinical trials): no cases of DILI have been reported
- doses giving biologically active exposures ([25]; results from skin biopsy samples): > 200 mg
